Test results taken from patent US6797861B2, “Seed shattering” (Bayer BioScience NV, priority 1995, dated 2004).

Legend:
Assay type in all cases: in vivo, Brassica napus
[1] = test system: endogenous ACC and IAA in pod tissues; experiment: Endogenous phytohormone (ACC, IAA) concentrations in pod tissues; conditions: spray at 150 mg/l, 35 days after anthesis
Experimental: (§1) Brassica napus cv Fido plants were grown in an unheated greenhouse. At 12 days after germination plants were transferred to, and further grown in, 1000 cm^3 compost. Pods were collected at one week intervals from two to eight weeks after anthesis. The pods were taken from the base of the terminal one of the first three axillary racemes. The pods were separated into dehiscence zone, pod wall and seeds.
The samples were grinded with a mortar and pestle and then extracted for 16 hours at −20 C. in a total volume of 80% methanol. Purification and analysis of phytohormones was carried out essentially as described [Bialek and Cohen (1989), Plant Physiol. 90: 398; Prinsen et al. (1991), in: A Laboratory Guide for Cellular and Molecular Plant Biology. Ed. Negrutiu and Gharti-Chhetri. Birkhäuser Verlag, Basel/Boston/Berlin pp.175-185, pp.323-324; Chauvaux et al. (1993), J. Chromatogr. A 657: 337].
Different parts of the pods (pod wall, dehiscence zone and seeds) were screened for endogenous concentrations of the ethylene precursor 1-aminocyclopropane-1-carboxylic acid (ACC) and conjugates thereof as well as for indole-3-acetic acid (IAA) and conjugates thereof.
In a further experiment ethylene production was inhibited by treating the pods with aminoethoxyvinylglycine (AVG), a competitive inhibitor of the enzyme ACC-synthase. AVG was applied 28 days after anthesis at 500 mg/l. […]

[2] = test system: pods of oilseed rape cv Fido; experiment: Pod wall senescence and pod shatter tendency of treated plants; conditions: spray at 150 mg/l, 35 days after anthesis
Experimental: as §1
(§2) In a further experiment ethylene production was inhibited by treating the pods with aminoethoxyvinylglycine (AVG), a competitive inhibitor of the enzyme ACC-synthase. AVG was applied 28 days after anthesis at 500 mg/l. […] Decreased endogenous ACC concentrations in both dehiscence zone and seeds of the treated pods correlated with the reduced ethylene production. […] A decrease in endogenous IAA content in the dehiscence zone preceding pod opening was also observed in these experiments both in control and in AVG-treated plants.
(§3) To examine the auxin involvement in pod shattering, the synthetic auxin 4-chlorophenoxyacetic acid (4CPA) was used to manipulate auxin levels. 4CPA was applied 35 days after anthesis as a spray at 150 mg/l in order to artificially keep auxin concentration at a high level during the entire period. […] No effect was observed on the endogenous phytohormone concentrations.

Beta-Glucanase = experiment: Beta-glucanase activity in the dehiscence zone; conditions: spray at 150 mg/l, 35 days after anthesis
Experimental: as §3

[3] = test system: pods (8% moisture) of oilseed rape cv Fido; experiment: Cantilever bending test of pod opening force; conditions: plants sprayed
Experimental: as §1
as §2, with “plants. […]” for “plants.”
3) changes in the mechanical properties of the DZ and their seed shatter resistance by analysing the shatter resistance of individual pods. […] In yet another procedure, susceptibility to crack propagation is determined by friction measurement. In this case, the force generated due to friction between a wedge forced along the DZ is recorded and enables comparison of DZ tissues in selected, extreme examples of resistance.

## O=C(O)COc1ccc(Cl)cc1 [4CPA, 4-chlorophenoxyacetic acid]
[1]
  effect on endogenous phytohormone concentrations: No effect
[2]
  delay of pod wall senescence: about two
  pod shatter tendency: distinct retardation
Beta-Glucanase
  Beta-Glucanase activity in the dehiscence zone: markedly decreased
[3]
  Force needed to initiate crack (pod opening): 194.9 10^−3N
  Force needed to propagate crack (pod opening): 222.6 10^−3N
